Measurements taken from US20130101632A1, “NANOPARTICULATE FORMULATIONS OF MITHRAMYCIN OR MITHRAMYCIN ANALOGUES FOR TREATING CANCER” (UNIVERSITY OF KENTUCKY RESEARCH FOUNDATION, priority 2011, published 2013).

Legend:
HT29 cells = test: Cell toxicity assay in HT29 cells (resazurin); type: cell-based; settings: 72 hrs exposure
Method: The in vitro cytotoxic effects of the MTM loaded CNAs (Crosslinked Nano Assemblies) were investigated in comparison to free drugs. HT29 cells were cultured as specified from ATCC at 37° C., 5% CO2. The cells were seeded on a 96 well plate (5,000 cells/well) and allowed to adhere for 24 hrs. After 24 hrs growth media were replaced with fresh media containing drug and CNA samples at differing concentrations. Free drug formulations for SK and SDK and CNA formulations were prepared in filtered DI water. The cells were exposed to samples for 72 hrs total (n=4). Cell viability was assessed using a resazurin assay that indicates mitochondrial metabolic activity in live cells. 10 μL of a 1 mM resazurin (7-Hydroxy-3H-phenoxazin-3-one 10-oxide) solution in PBS was added to the vehicle- and drug-treated cells at the end of the treatment period. Cell viability was determined three hours later by reading the fluorescence at 560 nm (Ex)/590 nm (Em). The fluorescence signals were quantified using a Spectramax® M5 plate reader (Molecular Devices) equipped with a SoftMaxPro® software. Cytotoxicity was determined by calculating the half maximal inhibitory concentration (IC50) of each sample.

A549 cells = test: Cell toxicity assay in A549 cells (resazurin); type: cell-based, human
Method: The cytotoxic effects of four MTM analogue nanoparticulate formulations were investigated in comparison to free drugs. A549 cells were cultured as specified from ATCC at 37° C., 5% CO2. The cells were seeded on a 96 well plate (5,000 cells/well) and allowed to adhere for 24 hrs. After 24 hrs growth media were replaced with fresh media containing samples at differing concentrations. 1% DMSO (biotechnological grade) was used as a control vehicle to prepare free drug formulations for SK and SDK. Self-assembled and cross-linked micelles were used as nanoparticulate formulations for SK and SDK. The cells were exposed to samples for 72 hrs total (n=8). Cell viability was assessed using a resazurin assay that indicates mitochondrial metabolic activity in live cells. 10 μL of a 1 mM resazurin solution in PBS was added to the vehicle- and drug-treated cells at the end of the treatment period. Cell viability was determined three hours later by reading the fluorescence at 560 nm (Ex)/590 nm (Em). The fluorescence signals were quantified using a Spectramax M5 plate reader (Molecular Devices) equipped with a SoftMaxPro software. Cytotoxicity was determined by calculating the half maximal inhibitory concentration (IC50) of each sample.

HT29 colon cancer cells = test: In vivo subcutaneous tumor model; settings: 2 mg/kg, 100 μL injection, after 18 days, HT29 subcutaneous tumors in nude mice
Method: Subcutaneous tumor models were established with HT29 colon cancer cells. Nude/nude mice at 8 weeks old were injected with 3×10^6 HT29 cells subcutaneously in the right flank. The tumors were then allowed to grow to a volume of ˜130 mm^3. Once the tumors reached a volume of 130 mm^3 the mice were injected with 100 μL of the desired treatment. For the control group the mice were injected with PBS. For the SK free drug and SK CNA groups the final treatment dose was 7 mg/kg and an injection volume of 100 μL. For SDK free drug and SDK CNA the final treatment dose was 2 mg/kg with an injection volume of 100 μL. Once the mice were treated the tumor volume and body mass were measured for 18 days. The groups were formed with an N=6 mice. The tumor volume was calculated by the formula 0.5(l)×w2.

SMILES: CO[C@H](C(=O)C(C)=O)[C@@H]1Cc2cc3cc(OC4C[C@@H](OC5C[C@@H](O)[C@H](O)C(C)O5)[C@H](O)C(C)O4)c(C)c(O)c3c(O)c2C(=O)[C@H]1OC1C[C@@H](OC2C[C@@H](OC3C[C@](C)(O)[C@H](O)C(C)O3)[C@@H](O)C(C)O2)[C@H](O)C(C)O1 (stereo partly shown) [SDK]
- IC50 (HT29 cells): 216 ± 4 nM
- IC50 (A549 cells; 72 hrs exposure, resazurin assay): 93 ± 35 nM
- Relative efficacy to free drug (A549 cells; relative to free drug = 1.00): 1.00
- relative tumor regression as compared to the control (HT29 colon cancer cells): 48%
